Experiments:
[1] = Treatment study: plasma Cmin after oral dosing for 14 days in HCV genotype-1 patients; format: in vivo, human; details: for Plasma Mean Cmin at 0 hour (trough) predose: 14 days, preliminary mean
Description: FIG. 2 is a box plot showing trough plasma levels of a compound of Formula Ia measured on day 14 at various times when a compound of Formula Ia is administered twice per day (bid, left box) and when a compound of Formula Ia is administered three times per day (tid, right box). It has been determined that metabolism of compounds of the present invention is also affected by the patient's circadian rhythm. As shown in FIG. 2 (right hand box), plasma levels of the drug are highest in the morning, when measured 8 hours after the previous dose and before the morning dose is administered.

[2] = Solubility in water / aqueous systems; format: physicochemical

## CC(C)(C)NC(=O)N[C@H](C(=O)N1CC2C([C@H]1C(=O)NC(CC1CCC1)C(=O)C(N)=O)C2(C)C)C(C)(C)C (stereo partly drawn) [Formula Ia, (1R,5S)-N-[3-Amino-1-(Cyclobutylmethyl)-2,3-Dioxopropyl]-3-[2(S)-[[[(1,1-Dimethylethyl)Amino]Carbonyl]Amino]-3,3-Dimethyl-1-Oxobutyl]-6,6-Dimethyl-3-Azabicyclo[3.1.0]Hexan-2(S)-Carboxamide]
[1]; 100 mg BID oral, n = 12, HCV genotype-1 patients
  Plasma Mean Cmin at 0 hour (trough) predose: Cmin = 12.7 ng/ml
[1]; 200 mg BID oral, n = 12, HCV genotype-1 patients
  Plasma Mean Cmin at 0 hour (trough) predose: Cmin = 46.3 ng/ml
[1]; 400 mg BID oral, n = 11, HCV genotype-1 patients
  Plasma Mean Cmin at 0 hour (trough) predose: Cmin = 48.8 ng/ml
[1]; 400 mg TID oral, n = 10, HCV genotype-1 patients
  Plasma Mean Cmin at 0 hour (trough) predose: Cmin = 183 ng/ml
[1]; all dosing regimens of Table 1
  average Cmin plasma concentration maintained: ≥ 10 ng/mL
[2]
  solubility: ~600 µg/mL

— patent US20060276406A1, “Methods of treating hepatitis C virus” (Schering Corporation, priority 2005, published 2006)
